Assays:
RET cytoplasmic domain = target: T1, RET cytoplasmic domain (Homo sapiens, UniProt P07949); experiment: RET Kinase Screening Assay; format: biochemical
T1 construct: the RET cytoplasmic domain consisting of the last 492 amino acids of the intracellular domain; histidine tag (N); made in house; host or cells: Hi5 insect cells
T1 sequence (P07949 658-1114 limits assumed): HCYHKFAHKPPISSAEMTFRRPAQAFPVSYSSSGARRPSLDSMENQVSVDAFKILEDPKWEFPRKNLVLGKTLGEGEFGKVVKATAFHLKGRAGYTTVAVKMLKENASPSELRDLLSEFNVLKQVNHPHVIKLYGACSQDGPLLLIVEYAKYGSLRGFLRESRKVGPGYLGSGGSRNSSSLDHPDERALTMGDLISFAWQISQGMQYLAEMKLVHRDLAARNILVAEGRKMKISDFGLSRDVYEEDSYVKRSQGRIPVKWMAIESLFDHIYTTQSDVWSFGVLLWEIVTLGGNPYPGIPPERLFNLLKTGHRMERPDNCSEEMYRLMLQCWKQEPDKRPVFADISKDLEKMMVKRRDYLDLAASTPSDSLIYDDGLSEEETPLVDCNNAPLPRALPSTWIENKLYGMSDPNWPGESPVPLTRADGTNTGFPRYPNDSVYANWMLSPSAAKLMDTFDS

[1] = system: HeLa cervical adenocarcinoma; experiment: Inhibition of in vitro cell proliferation (HeLa); format: cell-based, human; conditions: Homo sapiens, 14C-thymidine incorporation;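 note: cells exposed to compound for 24 h, then labelled 24 h with methyl 14C-thymidine, with uptake into DNA counted by scintillation against DMSO-only control wells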
murine Aurora-A = target: T2, murine Aurora-A (Mus musculus, UniProt P97477); experiment: Aurora-A Screening Assay; format: biochemical
T2 construct: replaced with the full length protein encoding the murine Aurora-A; made in house; host or cells: sf9 insect cells
T2 sequence (P97477 1-395): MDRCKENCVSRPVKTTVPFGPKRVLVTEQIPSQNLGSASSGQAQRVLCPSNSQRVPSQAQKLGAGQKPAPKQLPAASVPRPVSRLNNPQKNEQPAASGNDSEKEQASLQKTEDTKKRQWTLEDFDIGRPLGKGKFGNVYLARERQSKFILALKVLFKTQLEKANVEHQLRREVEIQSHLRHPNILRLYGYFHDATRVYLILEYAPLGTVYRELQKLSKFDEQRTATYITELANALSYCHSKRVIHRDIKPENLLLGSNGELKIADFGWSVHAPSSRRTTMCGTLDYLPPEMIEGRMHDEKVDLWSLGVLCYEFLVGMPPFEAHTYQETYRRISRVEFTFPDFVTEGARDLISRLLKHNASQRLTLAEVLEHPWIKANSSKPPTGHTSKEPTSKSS

A375 malignant melanoma = experiment: Inhibition of in vitro cell proliferation (A375); format: cell-based, human; conditions: Homo sapiens, A-375, 14C-thymidine incorporation;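 note: cells plated for 24 h, given compound for 24 h, then labelled with 14C-thymidine for another 24 h, with DMSO-only wells as control and counts read by scintillation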
CDK1:Cyclin-B = target: T3, CDK1:Cyclin-B (Homo sapiens, UniProt P06493); experiment: CDK1 Screening Assay; format: biochemical
T3 construct: purchased New England Biolabs, Beverly, Mass; 6020; host or cells: insect cells
T3 sequence (P06493 whole entry): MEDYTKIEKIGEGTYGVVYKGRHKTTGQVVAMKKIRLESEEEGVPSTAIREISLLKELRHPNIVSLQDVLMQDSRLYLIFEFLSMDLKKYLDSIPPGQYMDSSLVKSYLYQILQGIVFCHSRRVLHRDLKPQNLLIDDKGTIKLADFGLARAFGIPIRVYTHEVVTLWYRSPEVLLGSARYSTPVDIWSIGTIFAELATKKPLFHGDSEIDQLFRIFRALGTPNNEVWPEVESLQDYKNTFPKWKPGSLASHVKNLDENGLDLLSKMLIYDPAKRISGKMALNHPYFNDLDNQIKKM
T3 sequence (P14635 whole entry partner): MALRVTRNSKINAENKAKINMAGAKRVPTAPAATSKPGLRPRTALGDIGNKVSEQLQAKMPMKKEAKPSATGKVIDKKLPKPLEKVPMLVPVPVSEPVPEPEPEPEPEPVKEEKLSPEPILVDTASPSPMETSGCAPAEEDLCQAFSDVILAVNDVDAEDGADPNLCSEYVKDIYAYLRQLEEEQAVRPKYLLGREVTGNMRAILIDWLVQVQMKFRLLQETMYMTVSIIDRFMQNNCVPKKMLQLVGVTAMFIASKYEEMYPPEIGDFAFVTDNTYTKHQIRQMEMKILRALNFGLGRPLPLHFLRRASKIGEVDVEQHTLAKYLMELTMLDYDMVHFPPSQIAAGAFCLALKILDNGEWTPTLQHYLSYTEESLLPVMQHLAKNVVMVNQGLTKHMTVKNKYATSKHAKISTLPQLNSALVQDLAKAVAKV

HCT-116 colon carcinoma = experiment: Inhibition of in vitro cell proliferation (HCT116); format: cell-based, human; conditions: Homo sapiens, HCT-116, 14C-thymidine incorporation;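 note: cells exposed to compound for 24 h, then 14C-thymidine added for a further 24 h and its uptake into DNA counted by scintillation, DMSO-only wells as control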
HER2 cytoplasmic domain = target: T4, HER2 cytoplasmic domain (Homo sapiens, UniProt P04626); experiment: HER2 Kinase Screening Assay; format: biochemical; conditions: > means no observed 50% inhibition at the indicated test concentration; ~ means approximately 50% inhibition at that concentration
T4 construct: polyhistidine (N)
T4 sequence (P04626 676-1255 limits assumed): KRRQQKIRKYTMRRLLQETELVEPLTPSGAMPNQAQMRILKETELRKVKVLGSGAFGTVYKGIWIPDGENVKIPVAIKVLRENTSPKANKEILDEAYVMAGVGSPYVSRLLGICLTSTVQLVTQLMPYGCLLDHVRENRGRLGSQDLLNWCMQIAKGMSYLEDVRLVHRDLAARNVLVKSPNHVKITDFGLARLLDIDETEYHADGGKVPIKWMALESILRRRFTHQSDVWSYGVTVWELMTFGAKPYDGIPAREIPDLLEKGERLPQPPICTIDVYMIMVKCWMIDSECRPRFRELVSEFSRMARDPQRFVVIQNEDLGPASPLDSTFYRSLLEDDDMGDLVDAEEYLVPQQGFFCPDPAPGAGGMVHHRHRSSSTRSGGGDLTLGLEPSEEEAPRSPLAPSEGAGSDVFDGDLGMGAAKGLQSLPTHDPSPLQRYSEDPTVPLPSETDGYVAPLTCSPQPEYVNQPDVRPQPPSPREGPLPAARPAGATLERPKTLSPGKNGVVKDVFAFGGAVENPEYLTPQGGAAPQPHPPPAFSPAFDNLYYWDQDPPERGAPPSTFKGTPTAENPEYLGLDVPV

[2] = target: T5, rat VEGF-R2 kinase domain (Rattus norvegicus, UniProt O08775); experiment: VEGF-R2 Screening Assay; format: biochemical; conditions: > means no observed 50% inhibition at the indicated test concentration; ~ means approximately 50% inhibition at that concentration; read-out: IC50 VEGF-R2
T5 construct: amino acids 786-1343 of the rat VEGF-R2 kinase domain; polyhistidine (N)
T5 sequence (O08775 786-1343): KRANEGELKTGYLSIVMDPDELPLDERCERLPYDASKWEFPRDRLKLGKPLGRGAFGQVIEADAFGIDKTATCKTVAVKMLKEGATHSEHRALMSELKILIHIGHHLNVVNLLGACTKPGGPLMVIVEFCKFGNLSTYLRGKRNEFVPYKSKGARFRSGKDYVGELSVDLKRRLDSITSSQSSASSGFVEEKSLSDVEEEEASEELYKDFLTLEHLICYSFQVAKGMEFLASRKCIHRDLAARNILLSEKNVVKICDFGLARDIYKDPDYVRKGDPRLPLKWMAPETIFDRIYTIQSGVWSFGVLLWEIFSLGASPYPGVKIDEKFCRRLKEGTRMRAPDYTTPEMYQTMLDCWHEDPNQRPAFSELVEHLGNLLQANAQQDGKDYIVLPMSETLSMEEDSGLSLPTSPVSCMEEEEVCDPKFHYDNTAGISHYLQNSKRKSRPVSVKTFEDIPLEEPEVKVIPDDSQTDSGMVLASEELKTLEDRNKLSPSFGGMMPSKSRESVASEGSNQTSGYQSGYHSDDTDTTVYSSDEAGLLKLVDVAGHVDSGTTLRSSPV

Row | SMILES | IC50 (RET cytoplasmic domain) | IC50 [1] | IC50 (murine Aurora-A) | IC50 (A375 malignant melanoma) | IC50 (CDK1:Cyclin-B) | IC50 (HCT-116 colon carcinoma) | IC50 (HER2 cytoplasmic domain) | IC50 [2]
1 | Cc1cc2c(F)c(Oc3ncnc(N)c3C=NOCCN(C)C)ccc2[nH]1 [Cpd 15, 4-amino-6-(4-fluoro-2-methyl-1H-indol-5-yloxy)-pyrimidine-5-carbaldehyde O-(2-dimethylamino-ethyl)-oxime] | > 100 µM |  | > 100 µM |  | > 100 µM |  | 36.1 µM | 
2 | CNCCON=Cc1c(N)ncnc1Oc1ccc2[nH]c(C)cc2c1F [Cpd 16, 4-amino-6-(4-fluoro-2-methyl-1H-indol-5-yloxy)-pyrimidine-5-carbaldehyde O-(2-methylamino-ethyl)-oxime] | > 100 µM | 2.01 µM | > 100 µM | 0.345 µM | > 100 µM | 3.04 µM | 10.9 µM | 
3 | C#CCON=Cc1c(N)ncnc1Oc1ccc2[nH]c(C)cc2c1F [Cpd 30, 4-amino-6-(4-fluoro-2-methyl-1H-indol-5-yloxy)-pyrimidine-5-carbaldehyde O-prop-2-ynyl-oxime] | ~10 µM |  | > 100 µM |  | > 100 µM |  | > 10 µM | 
4 | CON=Cc1c(N)ncnc1Oc1ccc(NC(=O)Nc2nc(C)c(C)s2)c(Cl)c1 [Cpd 92, 1-{4-[6-amino-5-(methoxyimino-methyl)-pyrimidin-4-yloxy]-2-chloro-phenyl}-3-(4,5-dimethyl-thiazol-2-yl)-urea] |  | 23.4 µM | > 100 µM | 6.92 µM | > 100 µM | 16.9 µM | > 1 µM | 0.002 µM
5 | CON=Cc1c(N)ncnc1Oc1ccc(NC(=O)Nc2cc(C)on2)c(Cl)c1 [Cpd 93, 1-{4-[6-amino-5-(methoxyimino-methyl)-pyrimidin-4-yloxy]-2-chloro-phenyl}-3-(5-methyl-isoxazol-3-yl)-urea] |  | 10 µM | > 100 µM | 2.12 µM | > 100 µM | 3.12 µM | > 10 µM | 0.002 µM
6 | CON=Cc1c(N)ncnc1Oc1ccc(NC(C)=O)c(Cl)c1 [Cpd 94, N-{4-[6-amino-5-(methoxyimino-methyl)-pyrimidin-4-yloxy]-2-chloro-phenyl}-acetamide] |  | 4.02 µM | > 100 µM | 2.69 µM | > 100 µM | 3.62 µM | > 100 µM | 2.21 µM
7 | CON=Cc1c(N)ncnc1Oc1ccc(NC(=O)OC)c(Cl)c1 [Cpd 95, {4-[6-amino-5-(methoxyimino-methyl)-pyrimidin-4-yloxy]-2-chloro-phenyl}-carbamic acid methyl ester] |  | 4.95 µM | > 100 µM | 3.5 µM | > 100 µM | 3.77 µM | > 10 µM | 0.152 µM
8 | CON=Cc1c(N)ncnc1Oc1ccc(CC(=O)Nc2ccccc2)cc1 [Cpd 97, 2-{4-[6-amino-5-(methoxyimino-methyl)-pyrimidin-4-yloxy]-phenyl}-N-phenyl-acetamide] |  | > 10 µM | > 100 µM | > 10 µM | > 100 µM | > 10 µM | 1.31 µM | 0.0407 µM
9 | CON=Cc1c(N)ncnc1Oc1ccc(CC(=O)Nc2ccc(C)cc2)cc1 [Cpd 99, 2-{4-[6-amino-5-(methoxyimino-methyl)-pyrimidin-4-yloxy]-phenyl}-N-p-tolyl-acetamide] |  | > 100 µM | > 100 µM | > 100 µM | > 100 µM | > 100 µM | 0.217 µM | 0.008 µM
10 | CON=Cc1c(N)ncnc1Oc1ccc(OCc2ccccc2)cc1 [Cpd 110, 4-amino-6-[4-(benzyloxy)phenoxy]-5-pyrimidinecarboxaldehyde O-methyloxime] |  | > 100 µM | > 100 µM | > 100 µM | > 100 µM | > 100 µM | 0.555 µM | ~1 µM

Now from value to compound:

Row | IC50 (RET cytoplasmic domain) | IC50 [1] | IC50 (murine Aurora-A) | IC50 (A375 malignant melanoma) | IC50 (CDK1:Cyclin-B) | IC50 (HCT-116 colon carcinoma) | IC50 (HER2 cytoplasmic domain) | IC50 [2] | SMILES
11 | > 100 µM | 0.032 µM | > 100 µM | 0.027 µM | > 100 µM | 0.036 µM | > 100 µM |  | CCON=Cc1c(N)ncnc1Oc1ccc2[nH]c(C)cc2c1F [Cpd 1, 4-amino-6-(4-fluoro-2-methyl-1H-indol-5-yloxy)-pyrimidine-5-carbaldehyde O-ethyl-oxime]
12 | 2.01 µM | 3.43 µM | > 10 µM | 1.82 µM | > 100 µM | 2.87 µM | > 100 µM |  | CON=Cc1c(N)ncnc1Oc1ccc2ncccc2c1 [Cpd 5, 4-amino-6-(quinolin-6-yloxy)-pyrimidine-5-carbaldehyde O-methyl-oxime]
13 | > 10 µM | 1.82 µM | > 100 µM | 0.886 µM | > 100 µM | 2.62 µM | > 10 µM |  | CON=Cc1c(N)ncnc1Oc1ccc2cccnc2c1 [Cpd 6, 4-amino-6-(quinolin-7-yloxy)-pyrimidine-5-carbaldehyde O-methyl-oxime]
14 | > 0.1 µM | 0.401 µM | > 100 µM | 0.492 µM | > 100 µM | 0.365 µM | 0.653 µM |  | CON=Cc1c(N)ncnc1Oc1ccc2[nH]ccc2c1F [Cpd 7, 4-amino-6-(4-fluoro-1H-indol-5-yloxy)-pyrimidine-5-carbaldehyde O-methyl-oxime]
15 | > 1 µM | 0.382 µM | > 10 µM | 0.327 µM | > 100 µM | 0.422 µM | > 1 µM |  | CON=Cc1c(N)ncnc1Oc1cc2cc[nH]c2cc1F [Cpd 8, 4-amino-6-(6-fluoro-1H-indol-5-yloxy)-pyrimidine-5-carbaldehyde O-methyl-oxime]
16 | > 100 µM | 0.306 µM | > 10 µM | 0.132 µM | > 100 µM | 0.385 µM | 0.208 µM |  | CON=Cc1c(N)ncnc1Oc1ccc2[nH]cc(C)c2c1 [Cpd 9, 4-amino-6-(3-methyl-1H-indol-5-yloxy)-pyrimidine-5-carbaldehyde O-methyl-oxime]
17 | 2.23 µM | 1.87 µM | > 10 µM | 0.783 µM | > 100 µM | 3.52 µM | 0.697 µM |  | CO/N=C/c1c(N)ncnc1Oc1ccc2[nH]ccc2c1 [Cpd 10, 4-amino-6-(1H-indol-5-yloxy)-pyrimidine-5-carbaldehyde O-methyl-oxime]
18 | > 100 µM | 0.375 µM | > 100 µM | 0.326 µM | > 100 µM | 0.749 µM | > 10 µM |  | CON=Cc1c(N)ncnc1Oc1ccc2c(ccn2C)c1 [Cpd 11, 4-amino-6-(1-methyl-1H-indol-5-yloxy)-pyrimidine-5-carbaldehyde O-methyl-oxime]
19 | > 10 µM | 0.406 µM | ~100 µM | 0.372 µM | > 100 µM | 0.323 µM | 9.59 µM |  | Cc1cc2c(F)c(Oc3ncnc(N)c3C=NOCCO)ccc2[nH]1 [Cpd 12, 4-amino-6-(4-fluoro-2-methyl-1H-indol-5-yloxy)-pyrimidine-5-carbaldehyde O-(2-hydroxy-ethyl)-oxime]
20 | > 100 µM | 4.22 µM | ~100 µM | 2.16 µM | > 100 µM | 4.61 µM | > 10 µM |  | Cc1cc2c(F)c(Oc3ncnc(N)c3C=NOCCN3CCCC3)ccc2[nH]1 [Cpd 13, 4-amino-6-(4-fluoro-2-methyl-1H-indol-5-yloxy)-pyrimidine-5-carbaldehyde O-(2-pyrrolidin-1yl-ethyl)-oxime]
21 | > 100 µM |  | > 100 µM |  | > 100 µM |  | ~10 µM |  | Cc1cc2c(F)c(Oc3ncnc(N)c3C=NOCCN3CCOCC3)ccc2[nH]1 [Cpd 14, 4-amino-6-(4-fluoro-2-methyl-1H-indol-5-yloxy)-pyrimidine-5-carbaldehyde O-(2-morpholin-4-yl-ethyl)-oxime]

— US8013153B2, “Substituted pyrimidine kinase inhibitors” (Janssen Pharmaceutica, N.V., priority 2006, dated 2011)
